Laboratory results taken from US20090004287A1, “Disinfectant formulations containing quaternary ammonium compounds and hydrogen peroxide” (priority 2007, published 2009).

How the values were obtained:
[1] = Hydrogen peroxide stability in the presence of didecyldimethylammonium bicarbonate/carbonate; format: physicochemical
Description: Hydrogen Peroxide Stability in the Presence of Didecyldimethylammonium Bicarbonate/-Carbonate

P. aeruginosa = assay: Efficacy against P. aeruginosa dried on microplate wells (growth/no growth, 4 replicates); format: cell-based; settings: 5% fetal bovine serum; for Positive cells out of a total of 4 after 5 min: contact time 5 min, diluted in water of 400 ppm hardness, positive = ineffective disinfection; for Positive cells out of a total of 4 after 10 min: contact time 10 min; for Positive cells out of a total of 4 after 10 min / Positive cells out of a total of 4 after 11 min / Positive cells out of a total of 4 after 13 min / Positive cells out of a total of 4 after 16 min / Positive cells out of a total of 4 after 20 min / Positive cells out of a total of 4 after 21 min / Positive cells out of a total of 4 after 25 min: water of 400 ppm hardness; for Positive cells out of a total of 4 after 11 min: contact time 11 min; for Positive cells out of a total of 4 after 13 min: contact time 13 min; for Positive cells out of a total of 4 after 16 min: contact time 16 min; for Positive cells out of a total of 4 after 20 min: contact time 20 min; for Positive cells out of a total of 4 after 21 min: contact time 21 min; for Positive cells out of a total of 4 after 25 min: contact time 25 min
Procedure: All solutions were diluted in water of 400 ppm hardness and all concentrations were expressed in ppm. Each of the solutions was tested in 4 replicates as described below. The numbers in Table 2 below indicate the number of “positive” cells or ineffective disinfection of 4 replicates. Various contact times noted on the tables were evaluated.
Flat bottom microplate wells were inoculated with 15 μL each of a suspension of 10% P. aeruginosa+5% fetal bovine serum in a saline solution, 4.5×10^7 cfu/mL using a Quadra Tower 400 Series High Throughput apparatus (Tomtec Inc., Hamden, Conn.). The plates were dried with cover open for 40 minutes at 36° C. Then, 120 μL of each test substance was transferred from the deep-well block to the test wells. The test organisms were exposed to the test substance for different contact times, after which the substances were removed with the Quadra and 150 μL of modified AOAC Letheen neutralizer+0.5% Na thiosulfate/growth broth was added to each well. The microplates were incubated at 36° C. for 24 hours and scored for growth/no growth.

| Compound | % Hydrogen Peroxide Concentration at Time/Temperature: 1 Month/40° C. ([1]; 1 month, 40° C.) [%] | % Hydrogen Peroxide Concentration at Time/Temperature: 1 Month/RT ([1]; 1 month, room temperature) [%] | % Hydrogen Peroxide Concentration at Time/Temperature: 1 Week/40° C. ([1]; 1 week, 40° C.) [%] | % Hydrogen Peroxide Concentration at Time/Temperature: 1 Week/RT ([1]; 1 week, room temperature) [%] | % Hydrogen Peroxide Concentration at Time/Temperature: Initial ([1]; Initial, by weight, analytical accuracy ±3% relative) [%] | Positive cells out of a total of 4 after 5 min (P. aeruginosa) | Positive cells out of a total of 4 after 10 min (P. aeruginosa) | Positive cells out of a total of 4 after 11 min (P. aeruginosa) | Positive cells out of a total of 4 after 13 min (P. aeruginosa) | Positive cells out of a total of 4 after 16 min (P. aeruginosa) | Positive cells out of a total of 4 after 20 min (P. aeruginosa) | Positive cells out of a total of 4 after 21 min (P. aeruginosa) | Positive cells out of a total of 4 after 25 min (P. aeruginosa) |
| --- | --- | --- | --- | --- | --- | --- | --- | --- | --- | --- | --- | --- | --- |
| OO [3.0% H2O2, hydrogen peroxide] | 1.82 | 2.85 | 2.74 | 2.99 | 3.11 | – | – | – | – | – | – | – | – |
| OO [H2O2 2,000 ppm, hydrogen peroxide] | – | – | – | – | – | 0 | 0 | 0 | 0 | 0 | 0 | 0 | 0 |
| OO [H2O2 600 ppm, hydrogen peroxide] | – | – | – | – | – | 4 | 4 | 2 | 0 | 0 | 0 | 0 | 0 |
| didecyldimethylammonium carbonate/bicarbonate [Quat 500 ppm] | – | – | – | – | – | 4 | 4 | 4 | 4 | 1 | 0 | 1 | 0 |
